Experimental data: patent US20210361701A1, “PENTAAZA MACROCYCLIC RING COMPLEXES FOR LOCAL DELIVERY” (Galera Labs, LLC, priority 2017, published 2021)
Where “and” joins values, the source holds several entries; their conditions need not be identical. Equal entries are not always repeated. One block for each compound: values may come before it.

Experiments:
[1] = Phase 1b trial of intravenous GC4419: toxicity and plasma pharmacokinetics; type: in vivo, human
Method: (§1) The toxicity of GC4419 administered intravenously was evaluated as a part of a phase 1b trial of the use of GC4419 in the treatment of oral mucositis (OM) in patients having oral cavity or oropharyngeal carcinoma. The bioavailability by intravenous administration is presumed to represent 100% systemic bioavailability. In particular, the patients tested included serial 3-6 patient cohorts, with locally-advanced, non-metastatic oral cavity or oropharyngeal carcinoma. The study called for intensity-modulated (IM)RT to approx. 70 Gy total (>50 Gy to >2 oral sites), 2.0-2.2 Gy/fx M-F plus CDDP; plus escalating doses of GC4419, via 60-minute IV infusion, M-F for 3-7 weeks, ending <60 minutes before IMRT. WHO grade of oral mucositis was assessed twice weekly, and levels of GC4419 were measured in plasma by LC/MS. Circulating cytokines (Cy) mechanistically related to oral mucositis were also assayed.
Furthermore, or Phase 1 trials for chemoradiotherapy-induced mucositis (OM) in patients with mouth or oropharyngeal carcinoma, treatment was provided but certain adverse effects (e.g., due to systemic toxicity) occurred. The dosing regimen included dosing with GC4419 intravenously over a period of 60 minutes, ending 60 minutes before an IMRT fraction, according to the protocol as described above. The most common adverse effects were nausea, fatigue, leukopenia, dry mount, dysgeusia and vomiting, and most were attributable to chemo or radiation therapy. A true “maximum dose” was not reached in this study. […] 16% of patients receiving 90 mg/day had grade 3 nausea, and 25% of those receiving 112 mg/day had grade 3 nausea, with those receiving 112 mg/day also experiencing some grade 3 vomiting (i.e., 25%).

[2] = Phase 1b trial of intravenous GC4419: oral mucositis outcome; type: in vivo, human; settings: IV GC4419 with IMRT plus CDDP; compared with historical controls
Method: as §1

[3] = Plasma pharmacokinetics after intraduodenal or intravenous dosing in female rats; type: in vivo; settings: rat, in vivo
Method: Therefore, following equivalent doses of GC4403, the systemic exposure to an ID dose in this Example was at least 30-100 times lower than it would be from an IV dose. […] This is important since the No Observable Adverse Effect Level (NOAEL) for chronic repeated IV dosing of GC4403 in the rat was previously shown to be only 3 mg/kg/day, and at this time, GC4403 has only be administered successfully to humans by the IV route. Thus, GC4403 or another related dismutase mimetic, such as GC4419, administered as an appropriate oral dosage form delivering drug directly into the small intestine may be an effective treatment for Crohn's Disease, ulcerative colitis and related diseases in humans.

[4] = Minipig intraduodenal (id) bioavailability of oil formulations versus iv parent complex; type: in vivo, Gottingen minipig; settings: id 10 mg/kg, 10% by weight formulation, vs 1 mg/kg iv parent, AUC0->24 h
Method: Compounds were screened for oral bioavailability by injecting the formulated prodrugs directly into the duodenum (intraduodenal or id administration) of the minipig test subjects, thus bypassing the acidic environment of the stomach and thereby eliminating potentially misleading oral bioavailability results that could arise from alteration of the test article drug in the acid environment of the stomach.
The studies were conducted at Xenometrics LLC (Stillwell, Kans.) and the id bioavailability was determined using various axial ligand derivative complexes of GC4419, GC4444, GC4403 and GC4401. […] The following formula is then used to calculate the % oral bioavailability via intestinal absorption of the test article drug complex:
% Oral Bioavailability=AUC0->24 h(id)×(1/dose (mg/kg))÷AUC0->24 hr (iv)*
*Where the iv dose is 1 mg of test article drug per kilogram body weight of the mini-pig, and the dose administered id is 10 mg of test article drug per kg body weight of the mini-pig.
Male Gottingen minipigs (4-5 mo old, 9-12 kg weight) were purchased from Marshall BioResources and housed at Xenometrics. […] The distal end was exteriorized with a reusable accessible hub (see surgical details below). During a recovery period of at least 2 weeks the minipigs were handled daily to acclimate them to the test procedures, i.e., id dosing and blood collections. For each experiment, each minipig received a test article drug dissolved or suspended in an excipient vehicle. […] All dosing experiments were conducted in fasted animals. Food was withdrawn from the minipigs 16 hours before dosing. The minipigs had ad libitum access to water. Dosed minipigs were allowed access to food 6 hour after dosing. The test article was administered at a dose of 10 mg/kg parent drug in 0.1 mL/kg vehicle (e.g., 1.5 mL in 15 kg minipig) as a bolus injection (˜1 minute) via the id cannula. The actual amount of total test article drug administered varied with the formula weight of the prodrug. An equal volume of excipient vehicle was used to flush the cannula after the test article was administered. Approximately 6 hours later, corn oil was used to flush the cannula. After approximately 24 hours post-dose, the catheter was flushed with sterile saline solution and capped. At the following time-points 0.25, 0.5, 1, 2, 4, 8, 24 and 48 hour post-injection, 2 mL blood samples were collected by cranial vena cava puncture (4 mL Sodium heparin Vacutainer, 20 g 1.5″ needle) after the skin surface was wiped with ethanol. The minipig was placed in a sling in a recumbent position without anesthesia for the collection of blood samples. The minipigs were never used more than once per 7 days for experimentation. The blood samples were kept on ice until processed for plasma. Blood samples were centrifuged at 1200×g for ten minutes at 4° C. and plasma samples were transferred to 96 well plate tubes, capped and stored at −20° C. until shipment on dry ice to the analytical laboratory used for measuring the concentration of drug in the plasma. The concentration of the parent manganese pentaaza macrocylic ring complex (independent of the composition of the axial ligands) was measured in plasma using a validated HPLC/MS/MS method that is linear between 50 ng/mL and 20,000 ng/mL.
The oils used for preparing the dosing solutions were used as supplied from commercial sources. The Capmul MCM (NF) is a mixture of mono/diglycerides of caprylic/capric acids and was supplied by ABITEC Corporation, Janesville, Wis. The Miglyol 812 N is a mixture of caprylic/capric acid triglycerides and was supplied by Cremer Oleo Division, Eatontown, N.J. Labrafil M 2125 CS (NF) is chemically defined to be linoleoyl polyoxyl-6 glycerides NF and was supplied by Gattefosse, SAINT-PRIEST Cedex, France. Peceol is chemically defined to be the monoglyceride, glyceryl monooleate NF, and was supplied by Gattefosse, SAINT-PRIEST Cedex, France. […]

Compound: [Cl][Mn][Cl].c1cc2nc(c1)CN[C@H]1CCCC[C@@H]1NCCN[C@H]1CCCC[C@@H]1NC2 [GC4419]
- nausea, patients ([1]; 30 mg/day for 14 or 30 doses, IV): 86%
- nausea, patients ([1]; 50 mg/day for 14 doses, IV): 100%
- nausea, patients ([1]; 75 mg/day for 14 doses, IV): 67%
- grade 3 nausea, patients ([1]; 90 mg/day, IV): 20% and 16%
- Dose-limiting toxicities that occurred, grade 3 ([1]; 112 mg daily, 60-minute IV infusion, with IMRT/CDDP): gastroenteritis (3 wks); and vomiting with hyponatremia (5+ wks)
- nausea, patients ([1]; 112 mg/day for 14, 20, 25 or 30 doses, IV): 89% and 85%
- Cmax and AUC ([1]; 60-minute IV infusion, 15-112 mg): dose-proportional
- plasma t1/2 ([1]; 60-minute IV infusion, patients): ~2 h
- dose limiting toxicity observed at ([1]; 60-minute IV infusion, grade 3 gastroenteritis at 3 weeks, grade 3 vomiting and hyponatremia at 5+ weeks): 112 mg/day
- GC4419-related toxicity ([1]; IV, 15-112 mg daily for 3-7 weeks): acceptable
- maximum dose ([1]; IV, up to 112 mg/day): not reached
- facial tingling ([1]; during infusion): Mild, transient facial tingling was observed
- paresthesia ([1]; patients receiving more than 30 mg/day, IV): Some grade 1-2 paresthesia was also observed
- Severe OM [2]: briefer, delayed, less severe, and less frequent than expected
- plasma concentrations and Cmax [3]: similarly low plasma concentrations and Cmax as GC4403
- plasma concentrations and Cmax ([3]; iv): similarly high plasma concentrations and Cmax

Compound: O=C([O-])c1ccccc1.O=C([O-])c1ccccc1.[Mn+2].c1cc2nc(c1)CNC1CCCCC1NCCNC1CCCCC1NC2 [GC4712, Manganese(II)bis-Benzoato[(4aS,13aS,17aS,21aS)-1,2,3,4,4a,5,6,12,13,13a,14,15,16,17,17a,18,19,20,21,21a-Eicosahydro-11,7-nitrilo-7H-dibenzo[b,h][1,4,7,10]tetraazacycloheptadecine-κN5, κN13, κN18, κN21, κN22]-]
- Mini-Pig BioA ([4]; Base oil Capmul MCM): 24%
- Mini-Pig BioA ([4]; Base oil Maisine 35-1): 18%
- Mini-Pig BioA ([4]; Base oil Peceol): 29%

Compound: Manganese(II)bis-D-phenylglycinato [(4aS,13aS,17aS,21aS)-1,2,3,4,4a,5,6,12,13,13a, 14,15,16,17,17a,18,19,20,21,21a-Eicosahydro-11,7-nitrilo-7H-dibenzo[b,h][1,4,7,10] tetraazacyclo-heptadecine-κN5, κN13, κN18, κN21, κN22]- [GC4721]
- Mini-Pig BioA ([4]; Base oil Miglyol 812 N): 11.5%^

More lines, now with the values ahead:

- Mini-Pig BioA ([4]; Base oil Labrafil M2125 CS): 21%
- Mini-Pig BioA ([4]; Base oil Peceol): 18%
Compound: CCCC(=O)[O-].CCCC(=O)[O-].[Mn+2].c1cc2nc(c1)CNC1CCCCC1NCCNC1CCCCC1NC2 [GC4713, Manganese(II)bis-n-Butyrato[(4aS,13aS,17aS,21aS)-1,2,3,4,4a,5,6,12,13,13a,14,15,16,17,17a,18,19,20,21,21a-Eicosahydro-11,7-nitrilo-7H-dibenzo[b,h][1,4,7,10]tetraazacycloheptadecine-κN5, κN13, κN18, κN21, κN22]-]

- Mini-Pig BioA ([4]; Base oil Labrafil M2125 CS): 20%
Compound: CC1NC2CCCCC2NCCNC2CCCCC2NCc2cccc1n2.CCC(=O)[O-].CCC(=O)[O-].[Mn+2] [GC4747, Manganese(II)bis-propionato[6R-Methyl(4aR,13aR,17aR,21aR)-1,2,3,4,4a,5,6,12,13,13a,14,15,16,17,17a,18,19,20,21,21a-Eicosahydro-11,7-nitrilo-7H-dibenzo[b,h][1,4,7,10]tetraazacycloheptadecine-κN5, κN13, κN18, κN21, κN22]-]
